System: 299254-011-R-J1-PDC complex spheroid viability
Assay: Anticancer human tumor 299254-011-R-J1-PDC patient-derived melanoma cell line growth inhibition [POLQ]
Conditions: for IC50: curve of first compound; for viability, T/C: stronger effect = lower value
In short: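 Three-cell-type spheroids modelling solid tumor plus stroma served as the readout system; POL inhibitors were tested individually and in combination, concentration ranges set by clinical Cmax where known.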

[1] = second compound 0.0316 µM, first compound 0.0316 µM
[2] = second compound 0.0316 µM, first compound 0.1 µM
[3] = second compound 0.0316 µM, first compound 0.316 µM
[4] = second compound 0.0316 µM, first compound 1 µM
[5] = second compound 0.0316 µM, first compound 3.16 µM
[6] = second compound 0.0316 µM, first compound 10 µM
[7] = second compound 0.1 µM, first compound 0.0316 µM
[8] = second compound 0.1 µM, first compound 0.1 µM
[9] = second compound 0.1 µM, first compound 0.316 µM
[10] = second compound 0.1 µM, first compound 1 µM
[11] = second compound 0.1 µM, first compound 3.16 µM
[12] = second compound 0.1 µM, first compound 10 µM
[13] = second compound 0.316 µM, first compound 0.0316 µM
[14] = second compound 0.316 µM, first compound 0.1 µM
[15] = second compound 0.316 µM, first compound 0.316 µM
[16] = second compound 0.316 µM, first compound 1 µM
[17] = second compound 0.316 µM, first compound 3.16 µM
[18] = second compound 0.316 µM, first compound 10 µM
[19] = second compound 1 µM, first compound 0.0316 µM
[20] = second compound 1 µM, first compound 0.1 µM
[21] = second compound 1 µM, first compound 0.316 µM
[22] = second compound 1 µM, first compound 1 µM
[23] = second compound 1 µM, first compound 3.16 µM
[24] = second compound 1 µM, first compound 10 µM
[25] = second compound 3.16 µM, first compound 0.0316 µM
[26] = second compound 3.16 µM, first compound 0.1 µM
[27] = second compound 3.16 µM, first compound 0.316 µM
[28] = second compound 3.16 µM, first compound 1 µM
[29] = second compound 3.16 µM, first compound 3.16 µM
[30] = second compound 3.16 µM, first compound 10 µM
[31] = second compound 10 µM, first compound 0.0316 µM
[32] = second compound 10 µM, first compound 0.1 µM
[33] = second compound 10 µM, first compound 0.316 µM
[34] = second compound 10 µM, first compound 1 µM
[35] = second compound 10 µM, first compound 3.16 µM
[36] = second compound 10 µM, first compound 10 µM
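Further: spheroids exposed to drugs for one week before measurement.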
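Wherever viability, T/C is given: percent viability relative to DMSO vehicle control taken as 100%.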

COc1cc(C2c3cc4c(cc3C(OC3OC5COC(C)OC5C(O)C3O)C3COC(=O)C23)OCO4)cc(OC)c1O (stereo unspecified) + Nc1ccc(C#CCN(C(=O)Cc2ncc(C(F)(F)F)cc2C(F)(F)F)c2ccc(F)cc2)nn1
IC50 (second compound 0.0316 µM): > 10 µM | IC50 (second compound 0.1 µM): > 10 µM | IC50 (second compound 0.316 µM): > 10 µM | IC50 (second compound 1 µM): > 10 µM | IC50 (second compound 3.16 µM): > 10 µM | IC50 (second compound 10 µM): > 10 µM | viability, T/C [1]: 112% | viability, T/C [2]: 105% | viability, T/C [3]: 87.5% | viability, T/C [4]: 92.2% | viability, T/C [5]: 78.7% | viability, T/C [6]: 63.5% | viability, T/C [7]: 112% | viability, T/C [8]: 94.4% | viability, T/C [9]: 112% | viability, T/C [10]: 84.5% | viability, T/C [11]: 89.7% | viability, T/C [12]: 69.7% | viability, T/C [13]: 114% | viability, T/C [14]: 100% | viability, T/C [15]: 88.5% | viability, T/C [16]: 106% | viability, T/C [17]: 83.7% | viability, T/C [18]: 74.8% | viability, T/C [19]: 108% | viability, T/C [20]: 99.2% | viability, T/C [21]: 90.3% | viability, T/C [22]: 99.6% | viability, T/C [23]: 71.8% | viability, T/C [24]: 82.3% | viability, T/C [25]: 99.7% | viability, T/C [26]: 102% | viability, T/C [27]: 88.9% | viability, T/C [28]: 80.7% | viability, T/C [29]: 76.8% | viability, T/C [30]: 69.3% | viability, T/C [31]: 98.8% | viability, T/C [32]: 100% | viability, T/C [33]: 89.9% | viability, T/C [34]: 75.5% | viability, T/C [35]: 89.1% | viability, T/C [36]: 71.7%

Nc1ccn(C2OC(CO)C(O)C2(F)F)c(=O)n1 (stereo unspecified) + Nc1ccc(C#CCN(C(=O)Cc2ncc(C(F)(F)F)cc2C(F)(F)F)c2ccc(F)cc2)nn1
IC50 (second compound 0.0316 µM): 0.123 µM | IC50 (second compound 0.1 µM): 0.351 µM | IC50 (second compound 0.316 µM): 0.0827 µM | IC50 (second compound 1 µM): 0.252 µM | IC50 (second compound 3.16 µM): 0.144 µM | IC50 (second compound 10 µM): 0.277 µM | viability, T/C [1]: 71.9% | viability, T/C [2]: 54.2% | viability, T/C [3]: 33.7% | viability, T/C [4]: 50.7% | viability, T/C [5]: 51.7% | viability, T/C [6]: 47.1% | viability, T/C [7]: 60.7% | viability, T/C [8]: 54.7% | viability, T/C [9]: 49.6% | viability, T/C [10]: 48.5% | viability, T/C [11]: 46% | viability, T/C [12]: 46.9% | viability, T/C [13]: 90% | viability, T/C [14]: 41.4% | viability, T/C [15]: 49.6% | viability, T/C [16]: 37.7% | viability, T/C [17]: 43.7% | viability, T/C [18]: 38.2% | viability, T/C [19]: 86.2% | viability, T/C [20]: 69.2% | viability, T/C [21]: 45.1% | viability, T/C [22]: 45.7% | viability, T/C [23]: 48% | viability, T/C [24]: 36.4% | viability, T/C [25]: 73.7% | viability, T/C [26]: 51.5% | viability, T/C [27]: 47% | viability, T/C [28]: 42.1% | viability, T/C [29]: 37.7% | viability, T/C [30]: 43.5% | viability, T/C [31]: 80% | viability, T/C [32]: 91.5% | viability, T/C [33]: 45.4% | viability, T/C [34]: 36.9% | viability, T/C [35]: 39.7% | viability, T/C [36]: 45%

O=c1[nH]cc(F)c(=O)[nH]1 + Nc1ccc(C#CCN(C(=O)Cc2ncc(C(F)(F)F)cc2C(F)(F)F)c2ccc(F)cc2)nn1
IC50 (second compound 0.0316 µM): > 10 µM | IC50 (second compound 0.1 µM): > 10 µM | IC50 (second compound 0.316 µM): > 10 µM | IC50 (second compound 1 µM): > 10 µM | IC50 (second compound 3.16 µM): > 10 µM | IC50 (second compound 10 µM): > 10 µM | viability, T/C [1]: 92.7% | viability, T/C [2]: 111% | viability, T/C [3]: 101% | viability, T/C [4]: 113% | viability, T/C [5]: 89.8% | viability, T/C [6]: 81.4% | viability, T/C [7]: 103% | viability, T/C [8]: 91.2% | viability, T/C [9]: 119% | viability, T/C [10]: 87% | viability, T/C [11]: 82.5% | viability, T/C [12]: 85.3% | viability, T/C [13]: 92% | viability, T/C [14]: 93.3% | viability, T/C [15]: 101% | viability, T/C [16]: 101% | viability, T/C [17]: 95.1% | viability, T/C [18]: 68% | viability, T/C [19]: 116% | viability, T/C [20]: 99.8% | viability, T/C [21]: 95.1% | viability, T/C [22]: 85.6% | viability, T/C [23]: 91.5% | viability, T/C [24]: 78.5% | viability, T/C [25]: 104% | viability, T/C [26]: 95% | viability, T/C [27]: 101% | viability, T/C [28]: 96.8% | viability, T/C [29]: 84.3% | viability, T/C [30]: 89.5% | viability, T/C [31]: 91.1% | viability, T/C [32]: 94.2% | viability, T/C [33]: 101% | viability, T/C [34]: 95.4% | viability, T/C [35]: 88.7% | viability, T/C [36]: 69.1%

— PubChem BioAssay AID1963849 (Molecular Pharmacology Branch, DTP, NCI, 2024)
